Source: US9901583B2, “Method of treating non-small cell lung cancer and/or small cell lung cancer using thienotriazolodiazepine compounds” (ONCOETHIX GMBH, priority 2014, dated 2018)
Several values for one entry are separate records, joined by “and”; a condition that tells them apart may be missing. Identical values can stand only once.

Columns and labels:
[1] = Oral exposure in the rat (pharmacokinetics); format: in vivo, Sprague Dawley rats; settings: 1 mg/kg intravenous, rats
Description: The oral bioavailability of three formulations of solid dispersions of compound (1-1) was determined in rats. The three dispersions chosen were the 25% dispersion of compound (1-1) in PVP, the 25% dispersion of compound (1-1) in HPMCAS-MG, and the 50% dispersion of compound (1-1) in HPMCAS-MG. The animals used in the study were Specific Pathogen Free (SPF) Hsd:Sprague Dawley rats obtained from the Central Animal Laboratory at the University of Turku, Finland. The rats were originally purchased from Harlan, The Netherlands. The rats were female and were ten weeks of age, and 12 rats were used in the study. […]
The oral dosing solutions containing the 25% dispersion of compound (1-1) in PVP, the 25% dispersion of compound (1-1) in HPMCAS-MG, and the 50% dispersion of compound (1-1) in HPMCAS-MG were prepared by adding a pre-calculated amount of sterile water for injection to containers holding the dispersion using appropriate quantities to obtain a concentration of 0.75 mg/mL of compound (1-1). […]
Pharmacokinetic parameters were calculated with the Phoenix WinNonlin software package (version 6.2.1, Pharsight Corp., CA, USA) with standard noncompartmental methods. The elimination phase half-life (t1/2) was calculated by least-squares regression analysis of the terminal linear part of the log concentration-time curve. […]

[2] = system: NSCLC cell lines (H2228, H3122, A549, HOP62, HOP92); test: MTT assay, growth inhibition, NSCLC panel; format: cell-based; settings: 72 h, 72 h exposure, 4 of 5 NSCLC cell lines
Description: (§1) Protein levels were analyzed by Western Blot with commercial antibodies; RT-PCR was done with Fast SYBR Green Master Mix on a StepOnePlus Real-Time PCR System at baseline, 4 and 24 h post-treatment. For cell cycle analysis cells were stained with propidium iodide and DNA content analyzed with a FACScan flow cytometer. Compound (1-1) was combined with the targeted agents everolimus and crizotinib and the combination index (CI) determined by the Chou-Talalay method.
(§2) Materials and Methods. Five established NSCLC cell lines, HOP62, HOP92, A549, H2228, and H3122 harboring different oncogenic mutations for KRAS, LKB I, TP53 and ALK (FIG. 13) were exposed to increasing doses of compound (1-1) (OncoEthix SA, Switzerland) for 72 h and cell proliferation was evaluated by MTT assays. Results represent the mean±95% CI of at least 3 independent experiments performed in triplicate. Protein levels were analyzed by Western blot using commercial antibodies. For cell cycle analysis cells were stained with PI and analyzed using a FACScan flow cytometer after 24 h of treatment. […] Concomitant compound (1-1) combination studies were performed in cell lines exposed for 48 h to increasing doses of compound (1-1) alone or in combination with everolimus or crizotinib, and assessed using the Chou & Talalay method. Combination Index (CI) was determined by median effect plot analysis using CalcuSyn software. […]

[3] = system: H3122; test: Cell cycle analysis (propidium iodide, FACScan); format: cell-based; settings: H3122, 24 h exposure at 500 nM
Description: as §1, §2

[4] = system: HOP92; test: Cell cycle analysis (propidium iodide, FACScan); format: cell-based; settings: HOP92, 24 h exposure at 500 nM
Description: as §1, §2

[5] = system: H2226; test: Cell cycle analysis (propidium iodide, FACScan); format: cell-based; settings: H2226, 24 h exposure at 500 nM
[6] = system: H2228 cells; test: Combination with crizotinib, Chou-Talalay combination index; format: cell-based; settings: 48 h concomitant exposure, dihydrate
Description: as §1, §2

[7] = system: H3122 cells; test: H3122 tumor-bearing mice; format: in vivo, male athymic NMRI nude mice; settings: 3 weeks of treatment
Description: In vivo studies: 5×10^6 H3122 cells were injected in the flank of male athymic NMRI nude mice, and mice were randomized to 3 groups (8 mice/group) when tumor volume reach 100 mm^3; vehicle (PBS, once daily, oral continuous), Compound (1-1) (50 mg/kg/bidaily, gavage, continuous), or crizotinib (25 mg/kg/daily, gavage, continuous).

[8] = system: DMS114 cells; test: MTT assay, growth inhibition; format: cell-based; settings: Homo sapiens, DMS-114, read-out: GI50 (95% CI), 72 h exposure
Description: (§3) Protein levels were analyzed by Western Blot using commercial antibodies and RT-PCR was performed with Fast SYBR Green Master Mix on a StepOnePlus Real-Time PCR System at baseline, then 4 and 24 h post-treatment. For cell cycle analysis, cells were stained with propidium iodide and analyzed for DNA content with a FACScan flow cytometer.
(§4) Cell lines were exposed to increasing doses of compound (1-1) for 72 hours, and cell proliferation was evaluated with the MTT assay. GI50 and Emax values were calculated with the equation for sigmoidal dose response using Prism 5.00 for Windows. Results represent the mean±95% CI of at least 3 independent experiments performed in triplicate.
(§5) For cell cycle analysis, cells were stained with propidium iodide and analyzed with a FACScan flow cytometer. RNA was isolated after treatment with DMSO or OTX015 (500 nM) for 2, 4, 8 or 12 and 24 h and gene expression profiles (GEP) were obtained in all NSCLC and 2 SCLC (H82 and DMS114) cell lines with Illumina HumanHT-12 Expression BeadChips. Data mining was done with LIMMA, GSEA, Metacore.

[9] = system: DMS79 cells; test: MTT assay, growth inhibition; format: cell-based; settings: Homo sapiens, DMS-79, 72 h exposure
Description: as §3, §4, §5

[10] = system: H69 cells; test: MTT assay, growth inhibition; format: cell-based; settings: Homo sapiens, NCI-H69, 72 h exposure
Description: as §3, §4, §5

[11] = system: H82 cells; test: MTT assay, growth inhibition; format: cell-based; settings: Homo sapiens, NCI-H82, 72 h exposure
Description: as §3, §4, §5

[12] = target: FKBP12 (Homo sapiens, UniProt P62942); settings: cited from earlier work
[13] = system: PI3K/mTOR; settings: cited from earlier work
[14] = system: Akt phosphorylation on T308; settings: cited from earlier work
[15] = system: Akt phosphorylation on S473; settings: cited from earlier work
[16] = system: PDGFR; settings: read-out: IC50 PDGFR; cited from earlier work
[17] = target: PI3Kβ (p110β) (Homo sapiens, UniProt P42338); settings: cited from earlier work
[18] = target: PI3Kγ (p110γ) (Homo sapiens, UniProt P48736); settings: cited from earlier work
PI3Kγ (p110γ), sequence (P48736 whole entry, species assumed): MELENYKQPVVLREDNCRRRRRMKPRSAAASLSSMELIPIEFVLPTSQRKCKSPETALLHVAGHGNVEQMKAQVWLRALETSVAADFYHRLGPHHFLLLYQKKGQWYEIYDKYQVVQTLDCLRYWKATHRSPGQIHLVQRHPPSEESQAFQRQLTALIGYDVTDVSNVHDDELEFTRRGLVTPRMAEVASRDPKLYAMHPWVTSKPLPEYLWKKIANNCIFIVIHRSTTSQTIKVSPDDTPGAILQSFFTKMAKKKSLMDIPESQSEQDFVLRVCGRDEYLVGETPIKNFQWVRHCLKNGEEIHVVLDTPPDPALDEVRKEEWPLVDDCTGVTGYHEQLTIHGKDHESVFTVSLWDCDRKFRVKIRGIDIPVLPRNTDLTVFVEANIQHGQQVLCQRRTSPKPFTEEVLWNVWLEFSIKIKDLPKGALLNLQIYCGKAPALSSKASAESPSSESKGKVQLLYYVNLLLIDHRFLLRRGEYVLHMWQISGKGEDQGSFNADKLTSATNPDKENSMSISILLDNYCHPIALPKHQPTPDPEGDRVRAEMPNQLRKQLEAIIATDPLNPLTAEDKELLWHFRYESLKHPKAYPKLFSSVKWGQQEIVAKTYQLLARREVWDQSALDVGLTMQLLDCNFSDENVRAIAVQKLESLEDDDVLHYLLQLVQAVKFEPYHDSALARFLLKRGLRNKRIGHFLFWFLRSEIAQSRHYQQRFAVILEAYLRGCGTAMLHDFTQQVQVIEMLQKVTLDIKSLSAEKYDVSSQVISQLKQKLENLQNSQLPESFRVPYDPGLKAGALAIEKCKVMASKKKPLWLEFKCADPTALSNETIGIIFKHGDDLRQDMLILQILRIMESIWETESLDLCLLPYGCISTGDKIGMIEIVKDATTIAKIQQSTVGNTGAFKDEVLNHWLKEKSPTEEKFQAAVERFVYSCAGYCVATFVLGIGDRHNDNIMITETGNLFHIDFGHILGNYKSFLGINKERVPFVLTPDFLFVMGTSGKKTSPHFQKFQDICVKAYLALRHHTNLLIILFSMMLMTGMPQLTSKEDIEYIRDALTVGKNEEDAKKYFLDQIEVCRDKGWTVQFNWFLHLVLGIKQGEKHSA

PI3Kβ (p110β), sequence (P42338 whole entry, species assumed): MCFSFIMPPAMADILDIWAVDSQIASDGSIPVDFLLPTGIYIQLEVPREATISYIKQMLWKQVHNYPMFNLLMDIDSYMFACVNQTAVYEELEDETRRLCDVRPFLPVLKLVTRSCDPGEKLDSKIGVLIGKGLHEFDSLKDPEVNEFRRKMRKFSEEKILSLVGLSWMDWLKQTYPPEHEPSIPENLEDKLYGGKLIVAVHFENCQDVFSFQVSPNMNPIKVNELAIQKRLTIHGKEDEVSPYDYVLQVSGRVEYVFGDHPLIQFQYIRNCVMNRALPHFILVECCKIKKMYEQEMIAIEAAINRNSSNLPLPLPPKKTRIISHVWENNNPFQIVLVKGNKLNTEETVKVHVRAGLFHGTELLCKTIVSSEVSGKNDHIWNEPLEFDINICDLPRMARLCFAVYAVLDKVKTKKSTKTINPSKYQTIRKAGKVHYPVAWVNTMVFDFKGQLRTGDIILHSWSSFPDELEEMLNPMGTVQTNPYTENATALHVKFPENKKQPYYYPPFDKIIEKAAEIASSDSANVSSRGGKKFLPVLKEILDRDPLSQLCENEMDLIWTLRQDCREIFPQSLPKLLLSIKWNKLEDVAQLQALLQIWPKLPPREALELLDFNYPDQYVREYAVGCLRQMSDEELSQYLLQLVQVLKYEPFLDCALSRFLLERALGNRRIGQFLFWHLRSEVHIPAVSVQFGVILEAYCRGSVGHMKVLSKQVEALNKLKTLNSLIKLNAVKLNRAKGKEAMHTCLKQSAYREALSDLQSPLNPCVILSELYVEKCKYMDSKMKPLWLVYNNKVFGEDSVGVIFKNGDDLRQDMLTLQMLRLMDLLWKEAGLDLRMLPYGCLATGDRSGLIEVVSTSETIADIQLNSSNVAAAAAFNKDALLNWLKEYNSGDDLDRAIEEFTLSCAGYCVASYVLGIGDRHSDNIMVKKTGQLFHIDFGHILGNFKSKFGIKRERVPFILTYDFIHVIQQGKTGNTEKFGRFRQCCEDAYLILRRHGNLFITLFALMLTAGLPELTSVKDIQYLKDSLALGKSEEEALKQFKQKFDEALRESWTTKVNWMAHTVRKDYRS
PI3Kβ (p110β), sequence (P27986 whole entry partner, species assumed): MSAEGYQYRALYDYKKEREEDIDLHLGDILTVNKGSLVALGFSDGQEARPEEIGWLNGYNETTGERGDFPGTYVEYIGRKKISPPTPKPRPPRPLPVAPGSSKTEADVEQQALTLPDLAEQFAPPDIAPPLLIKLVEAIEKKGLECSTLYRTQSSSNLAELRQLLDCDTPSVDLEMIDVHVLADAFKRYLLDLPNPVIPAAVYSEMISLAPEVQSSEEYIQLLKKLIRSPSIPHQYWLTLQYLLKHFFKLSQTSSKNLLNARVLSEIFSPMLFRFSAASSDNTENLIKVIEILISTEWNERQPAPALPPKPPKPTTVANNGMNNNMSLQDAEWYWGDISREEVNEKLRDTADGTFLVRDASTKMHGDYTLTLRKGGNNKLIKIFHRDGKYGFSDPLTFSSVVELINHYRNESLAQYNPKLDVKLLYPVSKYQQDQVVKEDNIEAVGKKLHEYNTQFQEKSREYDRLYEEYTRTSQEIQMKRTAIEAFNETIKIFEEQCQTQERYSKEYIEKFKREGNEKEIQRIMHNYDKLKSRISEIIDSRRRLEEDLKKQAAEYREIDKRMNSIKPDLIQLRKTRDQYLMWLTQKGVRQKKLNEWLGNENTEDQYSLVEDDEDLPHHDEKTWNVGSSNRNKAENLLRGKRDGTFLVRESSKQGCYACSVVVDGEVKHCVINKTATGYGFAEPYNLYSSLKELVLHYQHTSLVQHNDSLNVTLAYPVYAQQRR
FKBP12, sequence (P62942 whole entry, species assumed): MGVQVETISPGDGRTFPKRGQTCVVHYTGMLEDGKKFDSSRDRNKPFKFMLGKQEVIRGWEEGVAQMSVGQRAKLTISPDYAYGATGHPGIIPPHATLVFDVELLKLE

Cc1sc2c(c1C)C(c1ccc(Cl)cc1)=N[C@@H](CC(=O)Nc1ccc(O)cc1)c1nnc(C)n1-2 [Compound (1-1), 2-[(6S)-4-(4-chlorophenyl)-2,3,9-trimethyl-6H-thienol[3,2-f]-[1,2,4]triazolo[4,3-a][1,4]diazepin-6-yl]-N-(4-hydroxyphenyl)acetamide dihydrate]
CI/F [1]: 13.4 mL/min/kg
GI50 [2]: 110 to 940 nM
reduction of percent cells in the S phase [3]: 52%
reduction of percent cells in the S phase [4]: 40%
reduction of percent cells in the S phase [5]: 42%
combination index (CI) with crizotinib [6]: 0.98 and 0.9
weight loss [7]: no weight loss was observed
GI50 [8]: 120 nM
GI50 [9]: > 6000 nM
GI50 [10]: > 6000 nM
GI50 [11]: > 6000 nM

CO[C@H]1C[C@@H]2CC[C@@H](C)[C@@](O)(O2)C(=O)C(=O)N2CCCC[C@H]2C(=O)O[C@H]([C@H](C)C[C@@H]2CC[C@@H](OCCO)[C@H](OC)C2)CC(=O)[C@H](C)/C=C(\C)[C@@H](O)[C@@H](OC)C(=O)[C@H](C)C[C@H](C)/C=C/C=C/C=C/1C [Everolimus]
IC50 [12]: 1.6 to 2.4 nM

COc1ccc(-c2ccc3ncc4c(c3c2)n(-c2ccc(N3CCNCC3)c(C(F)(F)F)c2)c(=O)n4C)cn1 [NVP-BGT226]
IC50 [13]: 1 nM

COc1ccc(-c2cc3c(C)nc(N)nc3n([C@H]3CC[C@H](OCCO)CC3)c2=O)cn1 [PF-04691502]
IC50 [14]: 7.5 nM
IC50 [15]: 3.8 nM

Nc1ncnc2c1c(-c1cnc3[nH]ccc3c1)nn2C1CCCC1 [PP-121]
IC50 [16]: 2 nM

GSK2126458
Ki [17]: 0.13 nM
Ki [18]: 0.024 nM
